Assay results published in patent US11485734B2, “Beta-carbolines as positive allosteric modulators of the human serotonin receptor 2C (5-HT2C)” (Northwestern University, priority 2018, dated 2022).
Entries after “also recorded” stand apart in the source; their conditions may differ.

What was measured:
[1] = target: T1, human serotonin receptor 2C (5-HT2c) (Homo sapiens, UniProt P28335); assay: 2C agonist activity of selected compounds; type: cell-based
T1 sequence (P28335 33-458): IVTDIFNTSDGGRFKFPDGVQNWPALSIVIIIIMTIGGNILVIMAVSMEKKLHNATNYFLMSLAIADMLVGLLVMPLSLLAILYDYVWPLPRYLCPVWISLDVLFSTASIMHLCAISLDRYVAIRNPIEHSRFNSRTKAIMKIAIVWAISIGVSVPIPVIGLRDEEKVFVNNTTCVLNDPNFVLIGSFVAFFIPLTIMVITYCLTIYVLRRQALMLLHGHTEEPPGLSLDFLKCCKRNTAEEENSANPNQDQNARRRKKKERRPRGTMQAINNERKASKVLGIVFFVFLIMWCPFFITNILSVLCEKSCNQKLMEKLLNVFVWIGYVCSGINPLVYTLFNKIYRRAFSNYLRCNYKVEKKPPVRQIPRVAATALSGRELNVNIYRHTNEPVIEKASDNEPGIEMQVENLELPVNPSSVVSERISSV

5-HT2a receptor = 5-HT2a receptor (Homo sapiens, UniProt P28223); assay: 2A agonist activity of selected compounds; type: cell-based
[2] = target: T1, human serotonin receptor 2C (5-HT2c); assay: 2C antagonist activity of selected compounds; type: cell-based
mice [3] = assay: Amphetamine-induced increase in locomotor activity (LMA); type: in vivo; details: AJC-61 2 mg/kg, amphetamine 2.5 mg/kg, eight 15 minute intervals
Description: FIG. 1. […] The effect of AJC-61 (2 mg/kg) on amphetamine-induced (2.5 mg/kg) increase in locomotor activity in mice.
(§1) The ability of a test drug to block the increase in Locomotor Activity (LMA) produced by amphetamine or the glutamate receptor […], phencyclidine (PCP), has a high predictive value for the antipsychotic efficacy of the test drug for treating schizophrenia. […] As such, we tested the effect of AJC-61 on reducing LMA in mice that had been treated with amphetamine or PCP to increase LMA activity.

mice [4] = assay: PCP-induced increase in locomotor activity (LMA); type: in vivo; details: AJC-61 2 mg/kg, PCP 10 mg/kg, eight 15 minute intervals
Description: FIG. 2. […] The effect of AJC-61 (2 mg/kg) on PCP-induced (10 mg/kg) increase in locomotor activity in mice.
as §1

male C57BL/6J mice = assay: Novel Object Recognition in PCP-treated mice; type: in vivo; details: AJC-61 2 mg/kg, PCP 10 mg/kg
Description: FIG. 3. Novel Object Recognition: Discrimination index (DI) for male C57BL/6J mice treated with Vehicle, PCP (10 mg/kg), and PCP+AJC-61 (2 mg/kg). Data are shown as mean±S.E.M. of exploration time (s) n=10 mice per group.
The Novel Object Recognition test in rodents is considered a valid model of spatial memory in man. […] Normal mice remember for ˜24 hours. The time to loss of the memory in aged mice can be as low as zero to less than 8 hours. As such, we tested the effect of AJC-61 on reducing the DI in mice that had been treated with PCP to reduce the DI.

mice [5] = assay: Social Interaction in PCP-treated mice; type: in vivo; details: AJC-61 2 mg/kg; PCP 10 mg/kg i.p. 7 days b.i.d.; 10-minute paradigm
Description: FIG. 4. Social Interaction: Effect of Vehicle, PCP (10 mg/kg: i.p., 7 days: b.i.d.), and PCP+AJC-61 (2 mg/kg), on social behaviors (sniffling, following, and avoiding) and interaction with inanimate object (object exploration), in a 10-minute social interaction (SI) paradigm. Data were analyzed by one-way ANOVA comparing the effect of drug treatment on each behavior and are shown as mean±S.E.M. of time (s); n=10 pairs of mice per group.
A healthy mouse will vigorously explore a newly introduce mouse and retain the memory for that mouse for up to 24 hours. The loss of interest in exploring a novel mouse is considered a sign of negative symptoms.
PCP-treatment produces a deficit in social interaction which models negative symptoms in schizophrenia. These include lack of motivation, loss of interest in activities, diminished capacity for pleasure and spontaneous activity. We tested the effect of AJC-61 on Social Interaction in mice that had been treated with PCP, including a Social Behaviors that include sniffing, following, and avoiding and Object Exploration via interaction with an inanimate object.

mice [6] = assay: Porsolt Forced Swim Test (FST) in PCP-treated mice; type: in vivo; details: AJC-61 2 mg/kg, PCP 10 mg/kg i.p. 7 days b.i.d., 6-min FST
Description: FIG. 5. Porsolt Forced Swim Test (FST). Effect of Vehicle, PCP (10 mg/kg; i.p., 7 days; b.i.d.), and PCP+AJC-61 (2 mg/kg), in a 6-min Porsolt Forced Swim Test (FST).
The Porsolt Forced Swim Test (FST) is a gold standard test for antidepressant action. In the FST, normal mice become immobile after being required to swim in a tank and begin to float instead of struggling to get out of the water. […] As such, we tested whether AJC-61 could increase the swim time in a FST.

mice [7] = assay: Marble Burying Task (MBT) in PCP-treated mice; type: in vivo; details: AJC-61 2 mg/kg; PCP 10 mg/kg i.p. 7 days b.i.d.; 30-minute MBT; listed as AJC-16
Description: FIG. 6. Marble Burying Task (MBT): Effect of Vehicle, PCP (10 mg/kg; i.p., 7 days; b.i.d.), and PCP+AJC-61 (2 mg/kg) in a 30-minute Marble Burying Task (MBT) paradigm.
(§2) Marble Burying (MB) and extent of shredding a standard type of rodent bedding (i.e., Nestlet Shredding) are both proven methods for assessing drug efficacy to treat obsessive-compulsive disorder and Tourette's syndrome. As such, we tested the effect on AJC-61 on Marble Burying and Nestlet Shredding.

mice [8] = assay: Nestlet Shredding (NS) in PCP-treated mice; type: in vivo; details: AJC-61 2 mg/kg; PCP 10 mg/kg i.p. 7 days b.i.d.; 30-minute NS; listed as AJC-16
Description: FIG. 7. Nestlet Shredding (NS): Effect of Vehicle, PCP (10 mg/kg; i.p., 7 days; b.i.d.), and PCP+AJC-61 (2 mg/kg) in a 30-minute Nestlet Shredding (NS) paradigm.
as §2

22-month old mice = assay: Novel Object Recognition in aged mice; type: in vivo; details: AJC-61 2 mg/kg
Description: FIG. 8. Novel Object Recognition: Effect on discrimination index (DI) of Vehicle and AJC-61 (2 mg/kg) on 2.5 month old mice and 22-month old mice Data are shown as mean±S.E.M. of exploration time (s): n=14 pairs of mice per group.
Aged mice show a decline in memory function beginning around 13-15 month of age. Drugs which enhance memory can be assessed using the Novel Object Recognition test and determination of the Discrimination Index (DI) as discussed above. As such, we tested whether AJC-61 could improve the DI for aged mice (i.e., 22-month old mice) versus young mice (i.e., 2.5 month old mice).

Chain of 5-HT2a receptor (P28223 whole entry): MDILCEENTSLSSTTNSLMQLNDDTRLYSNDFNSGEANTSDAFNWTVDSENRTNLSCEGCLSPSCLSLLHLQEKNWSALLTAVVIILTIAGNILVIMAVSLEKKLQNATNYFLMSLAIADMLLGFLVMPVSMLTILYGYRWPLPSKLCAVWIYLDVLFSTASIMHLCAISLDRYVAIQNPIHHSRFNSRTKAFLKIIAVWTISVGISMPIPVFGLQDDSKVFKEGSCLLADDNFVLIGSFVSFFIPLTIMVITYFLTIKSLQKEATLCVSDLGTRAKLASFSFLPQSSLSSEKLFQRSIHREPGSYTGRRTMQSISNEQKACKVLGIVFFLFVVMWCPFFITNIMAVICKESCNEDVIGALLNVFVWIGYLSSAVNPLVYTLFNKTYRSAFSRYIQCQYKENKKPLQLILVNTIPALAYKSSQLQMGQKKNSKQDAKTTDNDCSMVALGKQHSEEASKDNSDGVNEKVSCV

## Oc1ccc2[nH]c3c(c2c1)CCNC3c1ccccc1O (stereo not drawn) [MJO-01-34]
[1]
  EC50: 85.9 nM
  Emax: 103%
5-HT2a receptor
  EC50: 106 nM
  Emax: 27%

## Fc1ccc2[nH]c3c(c2c1)CCNC3c1cncnc1 (stereo not drawn) [MJO-01-31]
[1]
  EC50: 10.1 nM
  Emax: 101%
5-HT2a receptor
  EC50: 54.6 nM
  Emax: 95%

## Oc1ccc2[nH]c3c(-c4cncnc4)nccc3c2c1 [AJC-61, 1-(pyrimidin-5-yl)-9H-pyrido[3,4-b]indol-6-61]
[1]
  2C agonist: inactive
[2]
  IC50: > 10000 nM
5-HT2a receptor
  2A agonist: inactive
Mice [3]
  Effect on amphetamine-induced increase in locomotor activity: blocked amphetamine-induced increase in locomotor activity; also recorded: blocked the amphetamine-induced increase in LMA
Mice [4]
  Effect on PCP-induced increase in locomotor activity: blocked PCP-induced increase in locomotor activity; also recorded: blocked the PCP-induced increase in LAM
Male C57BL/6J mice
  Discrimination index (DI), PCP+AJC-61 versus PCP: significant increase in DI
Mice [5]
  Object exploration (inanimate object): no significant change
  Social interaction: avoiding, PCP+AJC-61 versus PCP: significant decrease in avoiding
  Social interaction: following: no significant change
  Social interaction: sniffing, PCP+AJC-61 versus PCP: significant increase in sniffing
Mice [6]
  Immobility time, PCP+AJC-61 versus PCP: significantly decreased the immobility time
Mice [6]; listed as AJC-16
  Immobility time, PCP+AJC-61 versus PCP: Significant decrease in immobility time
Mice [7]
  Number of marbles buried, PCP+AJC-61 versus PCP: significant decrease in the number of marbles buried
Mice [8]
  Percent nestlet shredded, PCP+AJC-61 versus PCP: significant decrease in the percent nestlet shredded
22-month old mice
  Discrimination index (DI), AJC-61 versus Vehicle: significant increase in the DI

## Clc1ccc2[nH]c3c(c2c1)CCNC3CCc1ccccc1 (stereo not drawn) [MJO-01-46]
[1]
  EC50: 5.37 nM
  Emax (2C agonist): 98%
5-HT2a receptor
  EC50: 11.3 nM
  Emax (2A agonist): 96%
